How the values were obtained:
Assay in all cases: Test B pre-/postemergence plant response
Type in all cases: in vivo
[1] = test system: Italian ryegrass (Lolium multiflorum)
How it was run: (§1)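 Seeds were sown in loam soil/sand blend and treated preemergence with compound in non-phytotoxic solvent mixture containing surfactant; postemergence sprays, same formulation, went onto plants 2 to 18 cm (1- to 4-leaf stage) in peat-based planting medium. Greenhouse 13 to 15 days, then visual rating versus untreated controls, 0 (no effect) to 100 (complete control).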

[2] = test system: bermudagrass (Cynodon dactylon); conditions: Postemergence
How it was run: as §1

[3] = test system: corn (Zea mays); conditions: Postemergence
How it was run: as §1

[4] = test system: downy bromegrass (Bromus tectorum); conditions: Postemergence
How it was run: as §1

[5] = test system: giant foxtail (Setaria faberii); conditions: Postemergence
How it was run: as §1

[6] = test system: goosegrass (Eleusine indica); conditions: Postemergence
How it was run: as §1

[7] = test system: green foxtail (Setaria viridis); conditions: Postemergence
How it was run: as §1

[8] = test system: johnsongrass (Sorghum halepense); conditions: Postemergence
How it was run: as §1

[9] = test system: large crabgrass (Digitaria sanguinalis); conditions: Postemergence
How it was run: as §1

[10] = test system: morningglory (Ipomoea coccinea); conditions: Postemergence
How it was run: as §1

[11] = test system: ragweed (common ragweed, Ambrosia elatior)
How it was run: as §1

[12] = test system: woolly cupgrass (Eriochloa villosa); conditions: Postemergence
How it was run: as §1

[13] = test system: yellow nutsedge (Cyperus esculentus); conditions: Postemergence
How it was run: as §1

[14] = Postemergence, 31 g ai/ha, scale 0 to 100 (0 no effect, 100 complete control)
[15] = Postemergence, 62 g ai/ha, scale 0 (no effect) to 100 (complete control), 13 to 15 days
[16] = Postemergence, 125 g ai/ha, visual rating after 13 to 15 days, scale 0 (no effect) to 100 (complete control)
[17] = Postemergence, 250 g ai/ha, scale 0 to 100
[18] = Preemergence, 0 is no effect, 100 is complete control, rated after 13 to 15 days, application rate of this section not shown
[19] = 31 g ai/ha, scale 0 to 100 (0 no effect, 100 complete control)
[20] = 62 g ai/ha, scale 0 (no effect) to 100 (complete control), 13 to 15 days
[21] = 125 g ai/ha, visual rating after 13 to 15 days, scale 0 (no effect) to 100 (complete control)

5-[(2-hydroxy-6-oxo-1-cyclohexen-1-yl)carbonyl]-2,3-diphenyl-4(3H)-pyrimidinone [Compound 2]
Plant response rating, Ryegrass, Italian [1, 14]: 0
Plant response rating, Ryegrass, Italian [1, 15]: 0
Plant response rating, Ryegrass, Italian [1, 16]: 0
Ryegrass, Italian plant response rating [1, 17]: 0
Ryegrass, Italian plant response rating (0 to 100 scale) [1, 18]: 0
Plant response rating, Bermudagrass [2, 19]: 40
Plant response rating, Bermudagrass [2, 20]: 50
Plant response rating, Bermudagrass ([2]; 125 g ai/ha, scale 0 to 100 (0 no effect, 100 complete control), 13 to 15 days): 60
Bermudagrass plant response rating ([2]; 250 g ai/ha, scale 0 to 100): 65
Plant response rating, Corn [3, 19]: 0
Plant response rating, Corn [3, 20]: 0
Plant response rating, Corn [3, 21]: 0
Corn plant response rating ([3]; 250 g ai/ha, scale 0 to 100): 0
Plant response rating, Bromegrass, Downy [4, 19]: 0
Plant response rating, Bromegrass, Downy [4, 20]: 0
Plant response rating, Bromegrass, Downy [4, 21]: 0
Bromegrass, Downy plant response rating ([4]; 250 g ai/ha, scale 0 to 100): 10
Plant response rating, Foxtail, Giant [5, 19]: 0
Plant response rating, Foxtail, Giant [5, 20]: 15
Plant response rating, Foxtail, Giant [5, 21]: 20
Foxtail, Giant plant response rating ([5]; 250 g ai/ha, scale 0 to 100): 50
Plant response rating, Goosegrass [6, 19]: 60
Plant response rating, Goosegrass [6, 20]: 60
Plant response rating, Goosegrass [6, 21]: 65
Goosegrass plant response rating ([6]; 250 g ai/ha, scale 0 to 100): 80
Plant response rating, Foxtail, Green [7, 19]: 5
Plant response rating, Foxtail, Green [7, 20]: 10
Plant response rating, Foxtail, Green [7, 21]: 30
Foxtail, Green plant response rating ([7]; 250 g ai/ha, scale 0 to 100): 40
Plant response rating, Johnsongrass [8, 19]: 0
Plant response rating, Johnsongrass [8, 20]: 0
Plant response rating, Johnsongrass [8, 21]: 0
Johnsongrass plant response rating ([8]; 250 g ai/ha, scale 0 to 100): 20
Plant response rating, Crabgrass, Large [9, 19]: 40
Plant response rating, Crabgrass, Large [9, 20]: 50
Plant response rating, Crabgrass, Large [9, 21]: 55
Crabgrass, Large plant response rating ([9]; 250 g ai/ha, scale 0 to 100): 65
Plant response rating, Morningglory [10, 19]: 0
Plant response rating, Morningglory [10, 20]: 20
Plant response rating, Morningglory [10, 21]: 45
Morningglory plant response rating ([10]; 250 g ai/ha, scale 0 to 100): 65
Plant response rating, Ragweed [11, 14]: 60
Plant response rating, Ragweed [11, 15]: 70
Plant response rating, Ragweed [11, 16]: 70
Ragweed plant response rating [11, 17]: 75
Ragweed plant response rating (0 to 100 scale) [11, 18]: 25
Plant response rating, Cupgrass, Woolly [12, 19]: 0
Plant response rating, Cupgrass, Woolly [12, 20]: 0
Plant response rating, Cupgrass, Woolly [12, 21]: 0
Cupgrass, Woolly plant response rating ([12]; 250 g ai/ha, scale 0 to 100): 20
Plant response rating, Nutsedge, Yellow [13, 19]: 15
Plant response rating, Nutsedge, Yellow [13, 20]: 20
Plant response rating, Nutsedge, Yellow [13, 21]: 20
Nutsedge, Yellow plant response rating ([13]; 250 g ai/ha, scale 0 to 100): 45
